# Laboratory results published in patent US7732475B2, “Histone deacetylase inhibitors” (Takeda San Diego, Inc., priority 2005, dated 2010).
# Target: HDAC2 (Homo sapiens, UniProt Q92769)
# Test: HDAC2 fluorescence inhibition assay (tBoc-Lys(Ac)-AMC)
# Chain of HDAC2 (Q92769 with tags, fused parts or gaps): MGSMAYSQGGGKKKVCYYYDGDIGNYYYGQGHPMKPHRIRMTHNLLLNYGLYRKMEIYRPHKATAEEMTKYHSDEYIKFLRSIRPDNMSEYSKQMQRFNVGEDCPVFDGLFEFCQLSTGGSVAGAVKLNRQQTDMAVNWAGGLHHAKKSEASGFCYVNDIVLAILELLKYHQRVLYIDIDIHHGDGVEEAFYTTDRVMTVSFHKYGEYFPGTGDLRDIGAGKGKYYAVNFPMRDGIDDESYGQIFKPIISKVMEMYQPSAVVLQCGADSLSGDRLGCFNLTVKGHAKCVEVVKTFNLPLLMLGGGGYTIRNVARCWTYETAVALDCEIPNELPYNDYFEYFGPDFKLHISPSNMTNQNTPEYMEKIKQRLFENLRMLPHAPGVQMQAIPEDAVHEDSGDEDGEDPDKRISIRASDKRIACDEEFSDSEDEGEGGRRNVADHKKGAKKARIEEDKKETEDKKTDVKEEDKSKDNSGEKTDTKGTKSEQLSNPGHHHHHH
row,Compound,IC50 [nM]
1,"Nc1ccc(-c2ccccc2)cc1NC(=O)c1ccc(Cn2cc3cc([N+](=O)[O-])ccc3n2)cc1 [Example 17, N-(4-Amino-biphenyl-3-yl)-4-(5-nitro-indazol-2-ylmethyl)-benzamide]",≤ 50
2,"CN(C)C(=O)c1cnn(Cc2ccc(C(=O)Nc3ccccc3N)cc2)c1 [Example 136, 1-(4-(2-aminophenylcarbamoyl)benzyl)-N,N-dimethyl-1H-pyrazole-4-carboxamide]",100 to 500
3,"Nc1ccc(-c2cccs2)cc1NC(=O)c1ccc(Cn2cc3ccccc3n2)cc1 [Example 111, 4-((2H-indazol-2-yl)methyl)-N-(2-amino-5-(thiophen-2-yl)phenyl)benzamide]",≤ 50
4,"Nc1ccccc1NC(=O)c1ccc(Cn2cc3cc(NC(=O)c4ccccc4)ccc3n2)cc1 [Example 10, 4-((5-benzamido-2H-indazol-1-yl)methyl)-N-(2-aminophenyl)benzamide]",≤ 50
5,"CC(=O)Nc1ccc2c(c1)c(N)nn2Cc1ccc(C(=O)Nc2ccccc2N)cc1 [Example 105, 4-((5-acetamido-3-amino-1H-indazol-1-yl)methyl)-N-(2-aminophenyl)benzamide]",50 to 100
6,"Nc1ccccc1NC(=O)c1ccc(Cn2cc3ccc(F)cc3n2)cc1 [Example 35, N-(2-aminophenyl)-4-((6-fluoro-2H-indazol-2-yl)methyl)benzamide]",50 to 100
7,"Nc1ccccc1NC(=O)c1ccc(Cn2cc(C(=O)NCc3ccncc3)cn2)cc1 [Example 146, 1-(4-(2-aminophenylcarbamoyl)benzyl)-N-(pyridin-4-ylmethyl)-1H-pyrazole-4-carboxamide]",≤ 50
8,"Nc1ccccc1NC(=O)c1ccc(CNc2cc[nH]n2)cc1 [Example 131, 4-((1H-pyrazol-3-ylamino)methyl)-N-(2-aminophenyl)benzamide]",≥ 500
9,"Nc1ccccc1NC(=O)c1ccc(Cn2[nH]c(=O)c3ccccc32)cc1 [Example 64, N-(2-aminophenyl)-4-((3-oxo-2,3-dihydro-1H-indazol-1-yl)methyl)benzamide]",50 to 100
10,"Nc1ccccc1NC(=O)c1ccc(Cc2c[nH]c3ccccc23)cc1 [Example 158, 4-((1H-Indol-3-yl)methyl)-N-(2-aminophenyl)benzamide]",50 to 100
11,"Cc1c2cccc(C(F)(F)F)c2nn1Cc1ccc(C(=O)Nc2ccccc2N)cc1 [Example 91, N-(2-aminophenyl)-4-((3-methyl-7-(trifluoromethyl)-2H-indazol-2-yl)methyl)benzamide]",50 to 100
12,"Nc1ccccc1NC(=O)c1ccc(Cn2cc3ccc(C(F)(F)F)cc3n2)cc1 [Example 121, N-(2-aminophenyl)-4-((6-(trifluoromethyl)-2H-indazol-2-yl)methyl)benzamide]",≤ 50
13,"Nc1ccc(-c2ccccc2)cc1NC(=O)c1ccc(Cn2cc3cccnc3n2)cc1 [Example 26, N-(4-Amino-biphenyl-3-yl)-4-pyrazolo[3,4-b]pyridin-2-ylmethyl-benzamide]",≤ 50
14,"Nc1ccccc1NC(=O)c1ccc(Cn2nc(N)c3ccccc32)cc1 [Example 96, 4-((3-amino-1H-indazol-1-yl)methyl)-N-(2-aminophenyl)benzamide]",50 to 100
15,"Nc1ccccc1NC(=O)c1ccc(Cn2nc3ccccc3c2-c2ccccc2)cc1 [Example 77, N-(2-aminophenyl)-4-((3-phenyl-2H-indazol-2-yl)methyl)benzamide]",50 to 100
16,"Nc1ccccc1NC(=O)c1ccc(Cn2cc(C(=O)NC3CC3)cn2)cc1 [Example 138, 1-(4-(2-aminophenylcarbamoyl)benzyl)-N-cyclopropyl-1H-pyrazole-4-carboxamide]",50 to 100

row,Compound,IC50 [nM]
1,"COCCOC(=O)Nc1ccc2c(cnn2Cc2ccc(C(=O)Nc3ccccc3N)cc2)c1 [Example 13, 2-Methoxyethyl 1-(4-((2-aminophenyl)carbamoyl)benzyl)-1H-indazol-5-ylcarbamate]",≤ 50
2,"Nc1ccccc1NC(=O)c1ccc(Cn2cc3cc(F)ccc3n2)cc1 [Example 38, N-(2-aminophenyl)-4-((5-fluoro-2H-indazol-2-yl)methyl)benzamide]",≤ 50
3,"COCCNC(=O)c1cnn(Cc2ccc(C(=O)Nc3ccccc3N)cc2)c1 [Example 151, 1-(4-(2-aminophenylcarbamoyl)benzyl)-N-(2-methoxyethyl)-1H-pyrazole-4-carboxamide]",50 to 100
4,"C[C@@H](c1ccc(C(=O)Nc2ccccc2N)cc1)n1cc2ccccc2n1 [Example 51, (S)-4-(1-(2H-indazol-2-yl)ethyl)-N-(2-aminophenyl)benzamide]",50 to 100
5,"COC(=O)c1ccc(N)c(NC(=O)c2ccc(Cn3cc4ccccc4n3)cc2)c1 [Example 33, Methyl 3-(4-((2H-indazol-2-yl)methyl)benzamido)-4-aminobenzoate]",≥ 500
6,"Nc1ccccc1NC(=O)c1ccc(Cn2ncc3c(F)cccc32)cc1 [Example 48, N-(2-aminophenyl)-4-((4-fluoro-1H-indazol-1-yl)methyl)benzamide]",50 to 100
7,"Nc1ncncc1NC(=O)c1ccc(Cn2cc3ccccc3n2)cc1 [Example 104, 4-((2H-indazol-2-yl)methyl)-N-(4-aminopyrimidin-5-yl)benzamide]",≥ 500
8,"CC(=O)Nc1ccc2c(cnn2Cc2ccc(C(=O)Nc3ccccc3N)cc2)c1 [Example 3, 4-((5-acetamido-1H-indazol-1-yl)methyl)-N-(2-aminophenyl)benzamide]",≤ 50
9,"CC(=O)Nc1ccc2c(C)nn(Cc3ccc(C(=O)Nc4ccccc4N)cc3)c2c1 [Example 87, 4-((6-acetamido-3-methyl-1H-indazol-1-yl)methyl)-N-(2-aminophenyl)benzamide]",50 to 100
10,"Nc1ccccc1NC(=O)c1ccc(Cn2ncc3cc(NC(=O)N4CCOCC4)ccc32)cc1 [Example 21, N-(1-(4-((2-Aminophenyl)carbamoyl)benzyl)-1H-indazol-5-yl)morpholine-4-carboxamide]",≤ 50
11,"Nc1ccccc1NC(=O)c1ccc(Cn2cc3cccc(F)c3n2)cc1 [Example 47, N-(2-aminophenyl)-4-((7-fluoro-2H-indazol-2-yl)methyl)benzamide]",50 to 100
12,"Nc1ccccc1NC(=O)c1ccc(Cn2nc(-c3ccccc3)c3ccccc32)cc1 [Example 76, N-(2-aminophenyl)-4-((3-phenyl-1H-indazol-1-yl)methyl)benzamide]",50 to 100
13,"Nc1ccccc1NC(=O)c1ccc(Cn2ncc3c2CCCC3)cc1 [Example 130, N-(2-aminophenyl)-4-((4,5,6,7-tetrahydro-1H-indazol-1-yl)methyl)benzamide]",100 to 500
14,"Nc1ccccc1NC(=O)c1ccc(Cn2cc(C(=O)NCc3cccnc3)cn2)cc1 [Example 145, 1-(4-(2-aminophenylcarbamoyl)benzyl)-N-(pyridin-3-ylmethyl)-1H-pyrazole-4-carboxamide]",≤ 50
15,"CC(=O)Nc1ccc2cnn(Cc3ccc(C(=O)Nc4ccccc4N)cc3)c2c1 [Example 89, 4-((6-acetamido-1H-indazol-1-yl)methyl)-N-(2-aminophenyl)benzamide]",≤ 50
16,"COc1ccc2c(C)n(Cc3ccc(C(=O)Nc4ccccc4N)cc3)nc2c1 [Example 67, N-(2-aminophenyl)-4-((6-methoxy-3-methyl-2H-indazol-2-yl)methyl)benzamide]",≤ 50
